Laboratory results as given in ChEMBL document CHEMBL4765228, “Indole-like Trk receptor antagonists” (Eur J Med Chem, 2016).

What was measured:
[1] = molecular target: Receptor-interacting serine/threonine-protein kinase 2 (Homo sapiens) (UniProt O43353); experiment: Inhibition of human RIPK2 assessed as residual activity at 0.1 uM relative to control
[2] = molecular target: Mitogen-activated protein kinase kinase kinase 11 (Homo sapiens) (UniProt Q16584); experiment: Inhibition of human MAP3K11 assessed as residual activity at 0.1 uM relative to control
[3] = molecular target: High affinity nerve growth factor receptor (Homo sapiens, UniProt P04629); experiment: Inhibition of human TRKA assessed as residual activity at 1 uM relative to control
[4] = molecular target: Mitogen-activated protein kinase 14 (Homo sapiens) (UniProt Q16539); experiment: Inhibition of human p38-alpha assessed as residual activity at 1 uM relative to control
[5] = molecular target: Casein kinase II subunit alpha (Homo sapiens) (UniProt P68400); experiment: Inhibition of human CK2alpha1 assessed as residual activity at 1 uM relative to control
[6] = molecular target: Serine/threonine-protein kinase Nek6 (Homo sapiens) (UniProt Q9HC98); experiment: Inhibition of human NEK6 assessed as residual activity at 1 uM relative to control
[7] = molecular target: Receptor tyrosine-protein kinase erbB-4 (Homo sapiens) (UniProt Q15303); experiment: Inhibition of human ERBB4 assessed as residual activity at 1 uM relative to control
[8] = molecular target: Homeodomain-interacting protein kinase 2 (Homo sapiens) (UniProt Q9H2X6); experiment: Inhibition of human HIPK2 assessed as residual activity at 0.1 uM relative to control
[9] = molecular target: 3-phosphoinositide-dependent protein kinase 1 (Homo sapiens) (UniProt O15530); experiment: Inhibition of human PDK1 assessed as residual activity at 0.1 uM relative to control
[10] = molecular target: Insulin-like growth factor 1 receptor (Homo sapiens) (UniProt P08069); experiment: Inhibition of human IGF1R assessed as residual activity at 0.1 uM relative to control
[11] = molecular target: Dual specificity tyrosine-phosphorylation-regulated kinase 1A (Homo sapiens) (UniProt Q13627); experiment: Inhibition of human DYRK1A assessed as residual activity at 0.1 uM relative to control
[12] = molecular target: Casein kinase I isoform delta (Homo sapiens) (UniProt P48730); experiment: Inhibition of human CK1-delta assessed as residual activity at 0.1 uM relative to control
[13] = molecular target: Proto-oncogene tyrosine-protein kinase Src (Homo sapiens) (UniProt P12931); experiment: Inhibition of human GST-HIS-tagged SRC assessed as residual activity at 0.1 uM relative to control
[14] = molecular target: Ribosomal protein S6 kinase alpha-5 (Homo sapiens) (UniProt O75582); experiment: Inhibition of human RPS6KA5 assessed as residual activity at 1 uM relative to control
[15] = molecular target: 3-phosphoinositide-dependent protein kinase 1 (Homo sapiens) (UniProt O15530); experiment: Inhibition of human PDK1 assessed as residual activity at 1 uM relative to control
[16] = molecular target: Serine/threonine-protein kinase N2 (Homo sapiens) (UniProt Q16513); experiment: Inhibition of human PRK2 assessed as residual activity at 1 uM relative to control
[17] = molecular target: Vascular endothelial growth factor receptor 1 (Homo sapiens) (UniProt P17948); experiment: Inhibition of human VEGFR1 assessed as residual activity at 1 uM relative to control
[18] = molecular target: Protein kinase C alpha type (Homo sapiens) (UniProt P17252); experiment: Inhibition of human PKCalpha assessed as residual activity at 0.1 uM relative to control
[19] = molecular target: Ephrin type-A receptor 2 (Homo sapiens) (UniProt P29317); experiment: Inhibition of human EPHA2 assessed as residual activity at 0.1 uM relative to control
[20] = molecular target: T1, Serine/threonine-protein kinase TBK1 (Homo sapiens) (UniProt Q9UHD2); experiment: Inhibition of human TBK1 assessed as residual activity at 0.1 uM relative to control
T1 sequence (whole entry): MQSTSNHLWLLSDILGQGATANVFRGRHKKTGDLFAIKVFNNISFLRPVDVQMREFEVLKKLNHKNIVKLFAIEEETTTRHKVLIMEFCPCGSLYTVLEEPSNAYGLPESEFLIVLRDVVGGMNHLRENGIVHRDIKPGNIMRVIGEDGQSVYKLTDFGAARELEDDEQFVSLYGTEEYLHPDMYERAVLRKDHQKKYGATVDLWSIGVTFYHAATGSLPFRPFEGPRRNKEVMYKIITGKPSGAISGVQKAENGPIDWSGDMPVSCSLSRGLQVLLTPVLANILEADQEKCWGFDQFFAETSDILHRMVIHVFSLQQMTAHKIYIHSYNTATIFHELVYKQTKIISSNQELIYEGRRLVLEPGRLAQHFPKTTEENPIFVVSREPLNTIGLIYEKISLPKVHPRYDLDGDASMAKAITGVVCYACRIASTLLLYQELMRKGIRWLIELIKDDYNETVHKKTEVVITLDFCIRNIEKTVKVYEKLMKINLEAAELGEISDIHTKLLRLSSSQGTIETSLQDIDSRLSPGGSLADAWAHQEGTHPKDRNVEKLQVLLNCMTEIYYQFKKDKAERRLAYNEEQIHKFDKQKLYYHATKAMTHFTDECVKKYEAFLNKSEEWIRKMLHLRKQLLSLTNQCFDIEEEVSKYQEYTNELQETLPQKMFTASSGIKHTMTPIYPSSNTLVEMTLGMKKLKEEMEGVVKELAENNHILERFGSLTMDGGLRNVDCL

[21] = molecular target: Tyrosine-protein kinase BTK (Homo sapiens) (UniProt Q06187); experiment: Inhibition of human BTK assessed as residual activity at 1 uM relative to control
[22] = molecular target: T2, Mitogen-activated protein kinase kinase kinase 7 (Homo sapiens) (UniProt O43318); experiment: Inhibition of human MAP3K7 assessed as residual activity at 0.1 uM relative to control
T2 sequence (whole entry): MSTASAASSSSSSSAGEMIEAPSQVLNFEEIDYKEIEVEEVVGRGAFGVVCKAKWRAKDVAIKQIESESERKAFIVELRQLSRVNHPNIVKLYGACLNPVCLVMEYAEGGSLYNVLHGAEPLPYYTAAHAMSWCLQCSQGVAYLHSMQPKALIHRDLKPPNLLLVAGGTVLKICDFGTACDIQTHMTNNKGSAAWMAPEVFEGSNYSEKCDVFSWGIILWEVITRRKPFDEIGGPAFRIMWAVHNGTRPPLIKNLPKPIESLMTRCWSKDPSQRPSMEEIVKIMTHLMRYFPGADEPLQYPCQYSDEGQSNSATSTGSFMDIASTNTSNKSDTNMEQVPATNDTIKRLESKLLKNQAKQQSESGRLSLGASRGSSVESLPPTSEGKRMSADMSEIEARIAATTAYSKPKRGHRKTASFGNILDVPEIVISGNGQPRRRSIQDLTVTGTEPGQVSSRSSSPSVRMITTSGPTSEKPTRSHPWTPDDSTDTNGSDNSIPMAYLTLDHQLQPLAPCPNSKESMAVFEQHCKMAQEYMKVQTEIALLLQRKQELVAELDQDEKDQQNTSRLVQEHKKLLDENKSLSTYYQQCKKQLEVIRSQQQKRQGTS

Chain of High affinity nerve growth factor receptor (P04629 33-796 limits assumed): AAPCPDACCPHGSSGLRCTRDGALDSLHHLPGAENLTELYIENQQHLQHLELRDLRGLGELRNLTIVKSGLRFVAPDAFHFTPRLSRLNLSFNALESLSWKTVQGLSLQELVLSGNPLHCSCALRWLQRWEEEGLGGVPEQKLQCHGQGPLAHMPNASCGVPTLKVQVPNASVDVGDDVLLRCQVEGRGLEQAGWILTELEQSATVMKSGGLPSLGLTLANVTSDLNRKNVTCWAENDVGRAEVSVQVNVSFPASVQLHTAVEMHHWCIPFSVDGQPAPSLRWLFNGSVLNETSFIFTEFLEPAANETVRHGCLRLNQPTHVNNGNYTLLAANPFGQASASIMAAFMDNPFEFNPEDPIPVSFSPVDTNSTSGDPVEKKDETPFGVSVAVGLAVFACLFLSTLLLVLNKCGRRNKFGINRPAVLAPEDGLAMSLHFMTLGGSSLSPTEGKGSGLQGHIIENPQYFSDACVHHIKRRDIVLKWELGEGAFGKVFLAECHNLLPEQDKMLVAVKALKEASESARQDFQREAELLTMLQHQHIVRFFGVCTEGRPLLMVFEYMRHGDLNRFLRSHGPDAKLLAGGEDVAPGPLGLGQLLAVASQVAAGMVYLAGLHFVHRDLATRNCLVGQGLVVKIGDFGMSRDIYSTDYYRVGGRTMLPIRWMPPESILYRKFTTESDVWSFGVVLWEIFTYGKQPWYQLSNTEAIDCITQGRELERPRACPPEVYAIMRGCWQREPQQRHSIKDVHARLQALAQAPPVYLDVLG
Chain of Mitogen-activated protein kinase 14 (Homo sapiens) (Q16539 whole entry): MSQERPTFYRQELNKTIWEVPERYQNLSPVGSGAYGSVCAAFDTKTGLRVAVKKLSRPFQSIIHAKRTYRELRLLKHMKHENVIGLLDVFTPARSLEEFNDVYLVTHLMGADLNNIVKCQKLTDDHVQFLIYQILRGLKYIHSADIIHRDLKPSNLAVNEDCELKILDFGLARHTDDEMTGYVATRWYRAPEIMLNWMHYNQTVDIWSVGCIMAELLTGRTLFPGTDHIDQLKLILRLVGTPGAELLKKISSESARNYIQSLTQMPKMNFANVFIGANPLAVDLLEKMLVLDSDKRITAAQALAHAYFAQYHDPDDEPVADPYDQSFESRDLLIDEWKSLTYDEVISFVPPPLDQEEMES
Chain of Insulin-like growth factor 1 receptor (Homo sapiens) (P08069 31-736 limits assumed): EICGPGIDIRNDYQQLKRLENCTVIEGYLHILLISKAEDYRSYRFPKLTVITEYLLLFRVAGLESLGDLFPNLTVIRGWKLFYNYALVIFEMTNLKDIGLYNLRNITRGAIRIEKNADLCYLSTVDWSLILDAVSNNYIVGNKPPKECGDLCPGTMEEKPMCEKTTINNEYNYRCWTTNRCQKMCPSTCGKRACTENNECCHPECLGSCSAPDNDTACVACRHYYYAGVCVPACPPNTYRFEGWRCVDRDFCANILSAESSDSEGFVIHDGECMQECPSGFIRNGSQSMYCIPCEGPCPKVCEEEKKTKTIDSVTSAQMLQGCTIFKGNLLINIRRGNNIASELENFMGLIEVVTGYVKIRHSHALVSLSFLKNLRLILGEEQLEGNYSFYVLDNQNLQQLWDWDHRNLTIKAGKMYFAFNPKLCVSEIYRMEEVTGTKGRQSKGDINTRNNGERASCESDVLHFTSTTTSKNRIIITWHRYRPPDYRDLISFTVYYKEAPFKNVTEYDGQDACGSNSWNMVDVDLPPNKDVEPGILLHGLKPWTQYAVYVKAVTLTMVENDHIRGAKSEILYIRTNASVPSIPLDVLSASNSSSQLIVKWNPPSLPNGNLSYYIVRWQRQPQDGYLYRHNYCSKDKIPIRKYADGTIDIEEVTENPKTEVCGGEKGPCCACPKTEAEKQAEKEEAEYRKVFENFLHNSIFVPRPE
Chain of Insulin-like growth factor 1 receptor (Homo sapiens) (P08069 741-1367 limits assumed): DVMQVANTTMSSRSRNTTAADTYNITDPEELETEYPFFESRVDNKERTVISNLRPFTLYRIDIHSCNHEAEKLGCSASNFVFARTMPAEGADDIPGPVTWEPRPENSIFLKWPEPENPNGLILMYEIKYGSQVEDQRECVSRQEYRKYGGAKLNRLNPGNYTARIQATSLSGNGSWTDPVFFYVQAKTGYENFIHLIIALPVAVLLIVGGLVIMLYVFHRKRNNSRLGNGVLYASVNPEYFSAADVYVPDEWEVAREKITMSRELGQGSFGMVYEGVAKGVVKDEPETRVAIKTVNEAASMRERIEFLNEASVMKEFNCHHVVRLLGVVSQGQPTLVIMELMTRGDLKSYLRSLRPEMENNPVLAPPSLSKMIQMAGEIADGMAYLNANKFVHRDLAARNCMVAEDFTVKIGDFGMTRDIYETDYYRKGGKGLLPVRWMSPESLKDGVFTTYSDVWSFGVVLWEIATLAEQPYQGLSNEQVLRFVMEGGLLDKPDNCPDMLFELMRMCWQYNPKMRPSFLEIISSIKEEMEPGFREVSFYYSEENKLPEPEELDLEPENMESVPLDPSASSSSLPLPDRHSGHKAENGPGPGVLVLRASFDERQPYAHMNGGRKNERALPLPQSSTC
Chain of 3-phosphoinositide-dependent protein kinase 1 (Homo sapiens) (O15530 whole entry, looked up): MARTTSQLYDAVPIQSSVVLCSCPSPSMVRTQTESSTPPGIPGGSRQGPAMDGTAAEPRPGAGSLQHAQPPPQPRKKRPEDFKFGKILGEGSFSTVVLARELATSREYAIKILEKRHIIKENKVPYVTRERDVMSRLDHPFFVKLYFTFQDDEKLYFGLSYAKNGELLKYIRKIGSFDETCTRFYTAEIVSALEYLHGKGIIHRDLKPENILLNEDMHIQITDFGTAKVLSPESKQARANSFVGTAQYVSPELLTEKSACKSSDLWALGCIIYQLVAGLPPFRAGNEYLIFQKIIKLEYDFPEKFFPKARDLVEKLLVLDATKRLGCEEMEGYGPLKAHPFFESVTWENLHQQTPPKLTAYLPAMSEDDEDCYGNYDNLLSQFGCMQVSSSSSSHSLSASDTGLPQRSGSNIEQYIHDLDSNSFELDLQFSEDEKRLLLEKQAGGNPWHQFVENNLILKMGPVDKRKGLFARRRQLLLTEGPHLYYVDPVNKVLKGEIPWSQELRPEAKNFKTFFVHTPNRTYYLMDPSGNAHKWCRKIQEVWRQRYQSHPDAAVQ
Chain of Vascular endothelial growth factor receptor 1 (Homo sapiens) (P17948 whole entry): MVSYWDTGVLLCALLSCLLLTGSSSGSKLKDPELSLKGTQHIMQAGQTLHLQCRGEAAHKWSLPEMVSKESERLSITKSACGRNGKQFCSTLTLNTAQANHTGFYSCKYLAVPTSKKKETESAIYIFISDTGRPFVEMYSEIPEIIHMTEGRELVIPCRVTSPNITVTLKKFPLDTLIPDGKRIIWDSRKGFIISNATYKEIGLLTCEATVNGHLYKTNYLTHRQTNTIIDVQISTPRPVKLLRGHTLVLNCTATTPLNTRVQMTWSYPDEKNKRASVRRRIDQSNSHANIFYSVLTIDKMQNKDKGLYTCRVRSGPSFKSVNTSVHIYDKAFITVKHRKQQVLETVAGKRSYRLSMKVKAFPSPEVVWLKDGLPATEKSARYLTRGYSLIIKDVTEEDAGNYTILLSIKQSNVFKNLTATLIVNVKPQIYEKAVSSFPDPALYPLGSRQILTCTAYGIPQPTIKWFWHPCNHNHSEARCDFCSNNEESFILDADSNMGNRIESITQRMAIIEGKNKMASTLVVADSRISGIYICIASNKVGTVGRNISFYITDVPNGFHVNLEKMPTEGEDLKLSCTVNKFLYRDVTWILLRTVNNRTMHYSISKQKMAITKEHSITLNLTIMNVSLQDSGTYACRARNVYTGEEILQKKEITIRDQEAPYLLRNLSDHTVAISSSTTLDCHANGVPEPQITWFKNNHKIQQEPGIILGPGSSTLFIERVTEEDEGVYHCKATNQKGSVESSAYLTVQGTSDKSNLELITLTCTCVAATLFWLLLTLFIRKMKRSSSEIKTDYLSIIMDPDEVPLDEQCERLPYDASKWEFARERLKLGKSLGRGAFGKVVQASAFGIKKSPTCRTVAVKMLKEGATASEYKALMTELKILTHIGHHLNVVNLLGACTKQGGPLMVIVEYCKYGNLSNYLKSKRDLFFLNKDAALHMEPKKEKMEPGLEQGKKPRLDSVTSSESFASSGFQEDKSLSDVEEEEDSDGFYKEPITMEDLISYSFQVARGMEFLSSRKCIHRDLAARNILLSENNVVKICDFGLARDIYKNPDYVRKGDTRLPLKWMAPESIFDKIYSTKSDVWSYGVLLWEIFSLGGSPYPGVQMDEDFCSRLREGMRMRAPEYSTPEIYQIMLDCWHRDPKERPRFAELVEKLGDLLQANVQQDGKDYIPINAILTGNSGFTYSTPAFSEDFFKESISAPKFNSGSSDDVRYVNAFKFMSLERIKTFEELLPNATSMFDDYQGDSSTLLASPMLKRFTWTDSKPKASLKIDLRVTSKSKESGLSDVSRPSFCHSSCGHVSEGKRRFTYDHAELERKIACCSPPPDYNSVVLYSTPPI

Row | Compound | Activity [1] [%] | Activity [2] [%] | Activity [3] [%] | Activity [4] [%] | Activity [5] [%] | Activity [6] [%] | Activity [7] [%] | Activity [8] [%] | Activity [9] [%] | Activity [10] [%] | Activity [11] [%] | Activity [12] [%] | Activity [13] [%] | Activity [14] [%] | Activity [15] [%] | Activity [16] [%] | Activity [17] [%] | Activity [18] [%] | Activity [19] [%] | Activity [20] [%] | also measured
1 | CN(C)S(=O)(=O)c1ccc2c(c1)/C(=C/c1cn(C)c3ccc(O)cc13)C(=O)N2 | 94 | 80 | 2 | 96 | 89 | 103 | 95 | 120 | 94 | 102 | 101 | 88 | 79 | 107 | 83 | 89 | 93 | 96 | 111 | 96 | Activity [21]: 107%; Activity [22]: 101%
2 | CNS(=O)(=O)c1ccc2c(c1)/C(=C/c1cn(C)c3ccc(OC)cc13)C(=O)N2 | 108 | 76 | 3 | 99 | 100 | 97 | 42 | 106 | 92 | 96 | 89 | 89 | 92 | 88 | 123 | 86 | 59 | 101 | 100 | 97 | Activity [21]: 73%; Activity [22]: 104%
3 | COc1ccc2c(c1)c(/C=C1\C(=O)Nc3ccc(S(=O)(=O)N(C)C)cc31)cn2C | 104 | 84 | 6 | 97 | 90 | 100 | 85 | 109 | 99 | 94 | 98 | 89 | 93 | 108 | 84 | 94 | 93 | 93 | 106 | 100 | Activity [21]: 89%; Activity [22]: 106%

More lines, main results first:

Row | Activity [1] [%] | Activity [2] [%] | Activity [3] [%] | Activity [4] [%] | Activity [5] [%] | Activity [6] [%] | Activity [7] [%] | Activity [8] [%] | Activity [9] [%] | Activity [10] [%] | Activity [11] [%] | Activity [12] [%] | Activity [13] [%] | Activity [14] [%] | Activity [15] [%] | Activity [16] [%] | Activity [17] [%] | Activity [18] [%] | Activity [19] [%] | Activity [20] [%] | Compound | also measured
4 | 100 | 34 | 1 | 100 | 94 | 98 | 87 | 108 | 93 | 105 | 101 | 87 | 113 | 95 | 75 | 89 | 85 | 91 | 98 | 79 | COc1ccc2c(c1)c(/C=C1\C(=O)Nc3ccc(S(N)(=O)=O)cc31)cn2C | Activity [21]: 107%; Activity [22]: 93%
5 | 96 | 66 | 0 | 93 | 84 | 108 | 60 | 124 | 98 | 98 | 105 | 92 | 107 | 95 | 66 | 81 | 76 | 104 | 110 | 96 | COc1ccc2[nH]cc(/C=C3\C(=O)Nc4ccc(S(N)(=O)=O)cc43)c2c1 | Activity [21]: 91%; Activity [22]: 93%
6 | 102 | 36 | 2 | 104 | 96 | 109 | 101 | 112 | 90 | 105 | 122 | 88 | 124 | 93 | 70 | 78 | 81 | 106 | 99 | 75 | Cn1cc(/C=C2\C(=O)Nc3ccc(S(N)(=O)=O)cc32)c2ccccc21 | Activity [21]: 119%; Activity [22]: 85%
